Assay results published in the supplement of paper PMC11061612.

Columns and labels:
[1] = tested on: D-283MED (Other Solid Carcinomas); assay: Bliss excess, mean over the matrix (fraction); higher = more synergy;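 also: after 72 h of two-drug dosing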
Summary of the method: (§1)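 After 24 hours at 37°C and 5% CO2 in 1536-well plates, cells in DMEM/F12 or RPMI plus 10% FBS received two-drug dose matrices for 72 hours. Viability came from CellTiter-Glo 2.0 luminescence and was scaled as inhibition, anchored at 0 by vehicle wells and at 1 by blank wells. Combination Emax is taken as the second-highest inhibition in the matrix, and Bliss excess as the observed combination effect less EA + EB − EA·EB, with EA and EB the single-agent effects.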

[2] = tested on: BICR78 (Oral Cavity Carcinoma); assay: combination Emax (second highest fraction inhibited in the dose matrix, 72 h); higher = more inhibition; extreme values may be limits of the assay
Summary of the method: as §1

[3] = tested on: CAL-39 (Other Solid Carcinomas); assay: as above
Summary of the method: as §1

D-392MG (Glioblastoma) = assay: as above
Summary of the method: as §1

[4] = tested on: DOK (Oral Cavity Carcinoma); assay: as above
Summary of the method: as §1

[5] = tested on: FU-OV-1 (Ovarian Carcinoma); assay: as above
Summary of the method: as §1

[6] = tested on: HCT-116 (Colorectal Carcinoma); assay: as above
Summary of the method: as §1

[7] = tested on: HLE (Hepatocellular Carcinoma); assay: as above
Summary of the method: as §1

[8] = tested on: NOMO-1 (Acute Myeloid Leukemia); assay: as above
Summary of the method: as §1

[9] = tested on: SK-LMS-1 (Other Solid Carcinomas); assay: as above
Summary of the method: as §1

[10] = tested on: SLVL (B-Cell Non-Hodgkin's Lymphoma); assay: as above
Summary of the method: as §1

Saos-2 (Osteosarcoma) = assay: as above
Summary of the method: as §1

[11] = tested on: TC-YIK (Other Solid Carcinomas); assay: as above
Summary of the method: as §1

[12] = tested on: YT (Other Blood Carcinomas); assay: as above
Summary of the method: as §1

Compound | Bliss excess [1] | combination Emax [2] | combination Emax [3] | combination Emax (D-392MG (Glioblastoma)) | combination Emax [4] | combination Emax [5] | combination Emax [6] | combination Emax [7] | combination Emax [8] | combination Emax [9] | combination Emax [10] | combination Emax (Saos-2 (Osteosarcoma)) | combination Emax [11] | combination Emax [12]
O=C(c1cc(Cc2n[nH]c(=O)c3ccccc23)ccc1F)N1CCN(C(=O)C2CC2)CC1 [Olaparib] + COc1nnc2ccc(N3CCC(c4ccc(OCCN5CCN(C)C(=O)[C@H]5C)cc4)CC3)nn12 [AZD5153] (first compound max 10 µM, 7x7, partner max 1 µM) | -0.0542 | 0.41 | 0.518 | 0.405 | 0.445 | 0.59 | 0.741 | 0.338 | 0.939 | 0.544 | 0.685 | 0.454 | 0.85 | 0.53
C[C@@H](Nc1cc(F)cc(F)c1)c1cc(C(=O)N(C)C)cc2c(=O)cc(N3CCOCC3)oc12 [AZD8186] + C1CN(CCC1(C(=O)N[C@@H](CCO)C2=CC=C(C=C2)Cl)N)C3=NC=NC4=C3C=CN4 [AZD5363] (first compound max 10 µM, 7x7, partner max 10 µM) | -0.0143 | 0.394 | 0.667 | 0.363 | 0.655 | 0.401 | 0.47 | 0.144 | 0.45 | 0.494 | 0.709 | 0.425 | 0.294 | 0.247
Cc1c2c(nn1C)CSCc1cc(n(C)n1)CSc1cc(c3ccccc3c1)OCCCc1c(C(=O)O)n(C)c3c-2c(Cl)ccc13 [AZD5991] + CC(=O)O[C@H]1C(=O)[C@@]2(C)[C@H]([C@H](OC(=O)c3ccccc3)[C@]3(O)C[C@H](OC(=O)[C@H](O)[C@@H](NC(=O)c4ccccc4)c4ccccc4)C(C)=C1C3(C)C)[C@]1(OC(C)=O)CO[C@@H]1C[C@@H]2O [Paclitaxel] (first compound max 1 µM, 7x7, partner max 3 µM) | -0.0552 | 0.701 | 0.994 | 0.734 | 0.977 | 0.474 | 0.981 | 0.825 | 1 | 0.919 | 0.954 | 0.961 | 0.928 | 1
CN(CCO)CC[C@H](CSc1ccccc1)Nc1ccc(S(=O)(=O)NC(=O)c2ccc(N3CCC([C@@H](O)c4ccccc4-c4ccc(Cl)cc4)CC3)cc2)cc1S(=O)(=O)C(F)(F)F [AZD4320] + CS(=O)(=O)CCNCc1ccc(-c2ccc3ncnc(Nc4ccc(OCc5cccc(F)c5)c(Cl)c4)c3c2)o1 [Lapatinib] (first compound max 1 µM, 7x7, partner max 10 µM) | 0.013 | 0.456 | 0.97 | 0.492 | 0.982 | 0.59 | 0.796 | 0.945 | 0.709 | 0.817 | 0.98 | 0.746 | 1 | 0.451
CC1(C)CCC(CN2CCN(c3ccc(C(=O)NS(=O)(=O)c4ccc(NCC5CCOCC5)c([N+](=O)[O-])c4)c(Oc4cnc5[nH]ccc5c4)c3)CC2)=C(c2ccc(Cl)cc2)C1 [Venetoclax] + CS(=O)(=O)CCNCc1ccc(-c2ccc3ncnc(Nc4ccc(OCc5cccc(F)c5)c(Cl)c4)c3c2)o1 [Lapatinib] (first compound max 1 µM, 7x7, partner max 10 µM) | -0.0416 | 0.364 | 0.913 | 0.0713 | 0.645 | 0.324 | 0.391 | 0.137 | 0.319 | 0.212 | 0.26 | 0.214 | 0.294 | 0.295
C[C@@H](Nc1cc(F)cc(F)c1)c1cc(C(=O)N(C)C)cc2c(=O)cc(N3CCOCC3)oc12 [AZD8186] + CC(=O)c1c(C)c2cnc(Nc3ccc(N4CCNCC4)cn3)nc2n(C2CCCC2)c1=O [Palbociclib] (first compound max 10 µM, 7x7, partner max 10 µM) | 0.113 | 0.385 | 0.772 | 0.446 | 0.538 | 0.444 | 0.684 | 0.197 | 0.568 | 0.808 | 0.439 | 0.329 | 0.741 | 0.448
N#Cc1cnc(Nc2cc(NC[C@H]3CNCCO3)c(C(F)(F)F)cn2)cn1 [SRA737] + O=c1[nH]cc(F)c(=O)[nH]1 [5-Fluorouracil] (first compound max 10 µM, 7x7, partner max 20 µM) | -0.0048 | 0.55 | 0.345 | 0.313 | 0.345 | 0.158 | 0.737 | 0.129 | 0.985 | 0.268 | 0.927 | 0.457 | 0.723 | 0.993
CN(CCO)CC[C@H](CSc1ccccc1)Nc1ccc(S(=O)(=O)NC(=O)c2ccc(N3CCC([C@@H](O)c4ccccc4-c4ccc(Cl)cc4)CC3)cc2)cc1S(=O)(=O)C(F)(F)F [AZD4320] + Nc1ccn([C@@H]2O[C@H](CO)[C@@H](O)C2(F)F)c(=O)n1 [Gemcitabine] (first compound max 1 µM, 7x7, partner max 0.3 µM) | -0.0335 | 0.63 | 0.97 | 0.96 | 0.859 | 0.245 | 0.899 | 0.887 | 0.987 | 0.984 | 1 | 0.984 | 1 | 0.862
